# PubChem BioAssay (NCI)
#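 Growth conditions: 96-well plates. Treatment: test compound, 48 hours, 5 concentrations. Analysis: linear interpolation between bracketing concentrations; unreached endpoints set to highest concentration. At the GI50, growth is halved. TGI is the concentration that stops growth completely.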
# Columns and labels:
# Assay in all cases: NCI tumour cell line growth inhibition, 48 h
# [1] = tested on: HS 578T breast
# [2] = tested on: PC-3 prostate
# [3] = tested on: BT-549 breast
# [4] = tested on: SF-539 CNS
# [5] = tested on: MALME-3M melanoma
# [6] = tested on: CCRF-CEM leukemia
# [7] = tested on: OVCAR-3 ovarian
# [8] = tested on: RPMI-8226 leukemia
# [9] = tested on: A498 renal
# [10] = tested on: SN12C renal
SMILES,GI50 [1],TGI [1],GI50 [2],TGI [2],GI50 [3],TGI [3],GI50 [4],TGI [4],GI50 [5],TGI [5],GI50 [6],GI50 [7],TGI [7],GI50 [8],TGI [8],GI50 [9],TGI [9],GI50 [10],TGI [10],TGI [6]
O=C(NNc1nc2c(F)cccc2n2cccc12)c1cnccn1,7.05 µM,80.4 µM,0.393 µM,39.5 µM,0.671 µM,50.8 µM,0.487 µM,14.5 µM,1.63 µM,> 77.1 µM,0.126 µM,0.454 µM,13.6 µM,0.418 µM,9.88 µM,2.18 µM,10.3 µM,0.602 µM,31.7 µM,–
N#CC(=C1SCS1)[N+](=O)[O-],3.67 µM,41.2 µM,5.11 µM,20.7 µM,9.3 µM,23 µM,2.23 µM,12.7 µM,3.21 µM,18.1 µM,0.376 µM,1.13 µM,3.92 µM,0.678 µM,4.06 µM,2.31 µM,12.7 µM,4.35 µM,18.4 µM,5.18 µM
COc1ccc(C(=S)N2CCN(c3cccc(Cl)c3)CC2)cc1,> 100 µM,> 100 µM,38.6 µM,> 100 µM,> 100 µM,> 100 µM,> 100 µM,> 100 µM,> 100 µM,> 100 µM,> 100 µM,> 100 µM,> 100 µM,45.4 µM,> 100 µM,> 100 µM,> 100 µM,> 100 µM,> 100 µM,> 100 µM
COC1(C(=O)N2Cc3nc(Cl)nc(N[C@H](C)c4cc(N)cc(C(F)(F)F)c4)c3C2)CCOCC1,17.7 µM,80.3 µM,21.3 µM,> 91.8 µM,12.4 µM,28.2 µM,15.2 µM,29.8 µM,17.3 µM,43 µM,31.3 µM,16.3 µM,49 µM,22.2 µM,> 83.2 µM,11.2 µM,58.6 µM,12.4 µM,53.4 µM,99 µM
O=C(CCN1CCN(c2cnc3ccccc3n2)CC1)c1csc2ccccc12,43.6 µM,> 100 µM,28.1 µM,> 100 µM,14.9 µM,30 µM,29.3 µM,77.9 µM,24.9 µM,69.1 µM,19.2 µM,25 µM,61.5 µM,9.4 µM,> 100 µM,47.4 µM,> 100 µM,79.6 µM,> 100 µM,> 100 µM
C=CC(=O)N[C@H]1C=C(C)c2c(-c3cnc4ccccc4c3)c3c(N)ncnc3n2C1,8.14 µM,46.6 µM,22.7 µM,> 100 µM,12.5 µM,41.9 µM,13.3 µM,31.6 µM,11.6 µM,25.7 µM,22.3 µM,8.27 µM,52.2 µM,17.9 µM,60.6 µM,0.351 µM,3.99 µM,12.9 µM,98.2 µM,> 100 µM
COc1ccc(-c2nn(-c3cccc(Cl)c3)cc2C2CC(c3ccccc3)=NN2C(C)=O)cc1 (centres undefined),2.81 µM,20.1 µM,6.8 µM,> 100 µM,3.23 µM,19.7 µM,5.4 µM,58.7 µM,4.87 µM,35.2 µM,> 100 µM,5.42 µM,45.1 µM,> 100 µM,> 100 µM,3.33 µM,50.4 µM,8.35 µM,> 100 µM,> 100 µM
C#Cc1cnc(=O)n(C2CC(O)C(CO)O2)c1 (centres undefined),> 100 µM,> 100 µM,3.36 µM,11.3 µM,> 100 µM,> 100 µM,> 100 µM,> 100 µM,> 100 µM,> 100 µM,13.5 µM,97 µM,> 100 µM,8.51 µM,> 22.8 µM,> 100 µM,> 100 µM,> 100 µM,> 100 µM,> 32.8 µM
CN1CCN(Cc2ccc(C(=O)Nc3cncc(C#Cc4cnc(N)c5ccccc45)c3)cc2C(F)(F)F)CC1,2.98 µM,14.6 µM,2.74 µM,10.1 µM,12.7 µM,25.4 µM,1.54 µM,2.89 µM,1.71 µM,3.25 µM,2.91 µM,1.95 µM,3.71 µM,2.15 µM,5.27 µM,1.52 µM,3.73 µM,1.8 µM,3.47 µM,9.07 µM
NC(N)=N/N=C(/c1ccccc1)c1ccc(F)cc1,0.452 µM,27.7 µM,0.382 µM,18.8 µM,0.551 µM,2.85 µM,0.271 µM,0.902 µM,0.368 µM,22 µM,0.493 µM,0.227 µM,0.621 µM,0.558 µM,21.6 µM,0.299 µM,3.28 µM,0.817 µM,22.2 µM,> 74.6 µM
COc1cc(C(=O)NC2c3ccccc3-c3ccccc32)c(N)cc1OCc1ccccc1,14.5 µM,79.1 µM,27.5 µM,> 66.1 µM,17 µM,42.2 µM,11.8 µM,28.3 µM,26.6 µM,> 76.6 µM,> 100 µM,24.2 µM,> 87.3 µM,97.5 µM,> 100 µM,37 µM,> 100 µM,11.4 µM,48.9 µM,> 100 µM
COc1cccc(/C=C/C(=O)c2cc3c(N)c(C(=O)Nc4ccccc4C)sc3nc2C)c1,1.63 µM,> 50 µM,1.69 µM,8.3 µM,1.5 µM,5.83 µM,1.13 µM,2.91 µM,2.29 µM,12.6 µM,1.33 µM,1.13 µM,2.44 µM,1.09 µM,2.92 µM,0.989 µM,4.4 µM,0.953 µM,2.13 µM,> 50 µM
CC(C)(C)c1cc(O)c(O)c(C(C)(C)C)c1,3.9 µM,26.7 µM,3.55 µM,15.9 µM,8.71 µM,21 µM,3.47 µM,11 µM,3.13 µM,9.71 µM,2.33 µM,1.93 µM,3.38 µM,3.17 µM,7.69 µM,6.19 µM,19.8 µM,4.82 µM,21.3 µM,7.49 µM
